Data published in US3940413A, “1-Ethyl-imidazoles” (Bayer Aktiengesellschaft, priority 1972, dated 1976).
Values after ≈ are worked out from the molar mass of the structure shown.

Key:
Test in all cases: antimycotic action spectrum in vitro, series dilution test
Assay type in all cases: cell-based
Candida albicans = settings: in nutrient medium, 28°C, 24 to 96 hours; for MIC: Candida albicans, read-out: Minimum inhibitory concentration, Candida albicans
Method: (§1) Determination of the anti-mycotic action spectrum in vitro by the series dilution test.
(§2) The nutrient substrates used were, for dermatophytes and moulds, Sabourauds' test medium, and, for blastomyces and biphase fungi, meat broth-glucose bouillon.
(§3) The incubation temperature was 28°C and the incubation time was 24 to 96 hours.

[1] = test system: Trichophyton mentagrophytes; settings: in nutrient medium, Sabourauds' test medium, 28°C, 24 to 96 hours; for MIC: Trichophyton mentagrophytes, read-out: Minimum inhibitory concentration, Trichophyton mentagrophytes
Method: as §1, §2, §3

Penicillium commune = settings: in nutrient medium, 28°C, 24 to 96 hours; for MIC: Penicillium commune, read-out: Minimum inhibitory concentration, Penicillium commune
Method: as §1, §2, §3

Aspergillus niger = settings: in nutrient medium, 28°C, 24 to 96 hours; for MIC: Aspergillus niger, read-out: Minimum inhibitory concentration, Aspergillus niger
Method: as §1, §2, §3

Row | MIC (Candida albicans) | MIC [1] | MIC (Penicillium commune) | MIC (Aspergillus niger) | SMILES | Minimum inhibitory concentration, Candida albicans (Candida albicans) | Minimum inhibitory concentration, Trichophyton mentagrophytes [1] | Minimum inhibitory concentration, Penicillium commune (Penicillium commune) | Minimum inhibitory concentration, Aspergillus niger (Aspergillus niger)
1 | 4 µg/mL (≈ 13.8 µM) | 8 µg/mL (≈ 27.6 µM) | 32 µg/mL (≈ 110 µM) | 4 µg/mL (≈ 13.8 µM) | CC(C)(C)C(=O)C(Cn1ccnc1)Oc1ccc(F)cc1 (centres unmarked) [Example 7, 2-(4-fluorophenoxy)-1-imidazolyl-(1)-4,4-dimethyl-pentan-3-one] |  |  |  | 
2 | 4 µg/mL (≈ 11.5 µM) | 8 µg/mL (≈ 23 µM) | 16 µg/mL (≈ 45.9 µM) | 8 µg/mL (≈ 23 µM) | CC(C)(C)C(=O)C(Cn1ccnc1)Oc1ccccc1-c1ccccc1 (centres unmarked) [Example 13, 2-(2-phenylphenoxy)-1-imidazolyl-(1)-4,4-dimethyl-pentan-3-one] |  |  |  | 
3 | 4 µg/mL (≈ 11.7 µM) | < 1 µg/mL | 16 µg/mL (≈ 46.9 µM) | 4 µg/mL (≈ 11.7 µM) | CC(C)(C)C(=O)C(Cn1ccnc1)Oc1ccc(Cl)cc1Cl (centres unmarked) [Example 5, 2-(2,4-dichlorophenoxy)-1-imidazolyl-(1)-4,4-dimethyl-pentan-3-one] |  |  |  | 
4 | 4 µg/mL (≈ 11.5 µM) | < 1 µg/mL | 8 µg/mL (≈ 23 µM) | 8 µg/mL (≈ 23 µM) | CC(C)(C)C(=O)C(Cn1ccnc1)Oc1ccc(-c2ccccc2)cc1 (centres unmarked) [Example 14, 2-(4-phenylphenoxy)-1-imidazolyl-(1)-4,4-dimethyl-pentan-3-one] |  |  |  | 
5 | 4 µg/mL (≈ 13 µM) | 8 µg/mL (≈ 26.1 µM) | 16 µg/mL (≈ 52.2 µM) | 4 µg/mL (≈ 13 µM) | CC(C)(C)C(=O)C(Cn1ccnc1)Oc1ccccc1Cl (centres unmarked) [Example 8, 2-(2-chlorophenoxy)-1-imidazolyl-(1)-4,4-dimethyl-pentan-3-one] |  |  |  | 
6 | 4 µg/mL (≈ 13 µM) | 4 µg/mL (≈ 13 µM) | 32 µg/mL (≈ 104 µM) | 8 µg/mL (≈ 26.1 µM) | CC(C)(C)C(=O)C(Cn1ccnc1)Oc1ccc(Cl)cc1 (centres unmarked) [Example 1, 2-(4-chlorophenoxy)-1-imidazolyl-(1)-4,4-dimethyl-pentan-3-one] |  |  |  | 
7 | 4 µg/mL (≈ 12.5 µM) | < 1 µg/mL | 8 µg/mL (≈ 24.9 µM) | 8 µg/mL (≈ 24.9 µM) | Cc1cc(Cl)ccc1OC(Cn1ccnc1)C(=O)C(C)(C)C (centres unmarked) [Example 12] |  |  |  | 
8 | 4 µg/mL (≈ 10.6 µM) | 4 µg/mL (≈ 10.6 µM) | 16 µg/mL (≈ 42.6 µM) | 4 µg/mL (≈ 10.6 µM) | CC(C)(C)C(=O)C(Cn1ccnc1)Oc1cc(Cl)c(Cl)cc1Cl (centres unmarked) [Example 10, 2-(2,4,5-trichlorophenoxy)-1-imidazolyl-(1)-4,4-dimethyl-pentan-3-one] |  |  |  | 
9 | 4 µg/mL (≈ 13 µM) | 4 µg/mL (≈ 13 µM) | 16 µg/mL (≈ 52.2 µM) | 4 µg/mL (≈ 13 µM) | CC(C)(C)C(=O)C(Cn1ccnc1)Oc1cccc(Cl)c1 (centres unmarked) [Example 9, 2-(3-chlorophenoxy)-1-imidazolyl-(1)-4,4-dimethyl-pentan-3-one] |  |  |  | 
10 |  |  |  |  | CC(C)(C)C(=O)C(Cn1ccnc1)Oc1ccc(Cl)cc1 (centres unmarked) [Example 4, 2-(4-chlorophenoxy)-1-imidazolyl-(1)-4,4-dimethyl-pentan-3-one] | 4 µg/mL (≈ 13 µM) | 4 µg/mL (≈ 13 µM) | 32 µg/mL (≈ 104 µM) | 4 µg/mL (≈ 13 µM)
11 | 4 µg/mL (≈ 11.4 µM) | 8 µg/mL (≈ 22.8 µM) | 16 µg/mL (≈ 45.6 µM) | 4 µg/mL (≈ 11.4 µM) | CC(C)(C)C(=O)C(Cn1ccnc1)Oc1ccc(Br)cc1 (centres unmarked) [Example 6, 2-(4-bromophenoxy)-1-imidazolyl-(1)-4,4-dimethyl-pentan-3-one] |  |  |  | 
